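Tested at 5 concentrations; 48 h exposure; 96-well plates; endpoints linearly interpolated, else capped at highest concentration. GI50: concentration for 50% inhibition of growth. TGI: concentration producing complete growth inhibition.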
Experiments:
Assay in all cases: inhibition of tumour cell growth, NCI panel, 48 h
LOX IMVI melanoma = tested on: LOX IMVI melanoma
SNB-19 CNS = tested on: SNB-19 CNS
MALME-3M melanoma = tested on: MALME-3M melanoma
HCT-15 colon = tested on: HCT-15 colon
HOP-18 NSCLC = tested on: HOP-18 NSCLC
HCT-116 colon = tested on: HCT-116 colon
UACC-62 melanoma = tested on: UACC-62 melanoma
NCI-H460 lung = tested on: NCI-H460 lung
TK-10 renal = tested on: TK-10 renal
A549 NSCLC = tested on: A549 NSCLC

CN(C)C(=O)OC(Cn1cncn1)c1ccc(Cl)cc1Cl (stereo not drawn)
TGI (LOX IMVI melanoma): > 100 µM | TGI (SNB-19 CNS): > 100 µM | TGI (MALME-3M melanoma): > 100 µM | TGI (HCT-15 colon): > 100 µM | TGI (HOP-18 NSCLC): > 100 µM | TGI (HCT-116 colon): > 100 µM | TGI (UACC-62 melanoma): > 100 µM | TGI (NCI-H460 lung): > 100 µM | TGI (TK-10 renal): > 100 µM | TGI (A549 NSCLC): > 100 µM

O=C(CN1CCOCC1)Nc1nc(-c2ccc(Cl)cc2)cs1
TGI (LOX IMVI melanoma): 58.7 µM | TGI (SNB-19 CNS): > 100 µM | TGI (MALME-3M melanoma): 65.2 µM | TGI (HCT-15 colon): > 100 µM | TGI (HOP-18 NSCLC): > 100 µM | TGI (UACC-62 melanoma): 53.3 µM | TGI (NCI-H460 lung): > 100 µM | TGI (TK-10 renal): > 100 µM | TGI (A549 NSCLC): > 100 µM

C#CCOCn1cnc2c(Cl)ncnc21
TGI (LOX IMVI melanoma): > 100 µM | TGI (SNB-19 CNS): > 100 µM | TGI (MALME-3M melanoma): > 100 µM | TGI (HOP-18 NSCLC): > 100 µM | TGI (HCT-116 colon): > 100 µM | TGI (UACC-62 melanoma): > 100 µM | TGI (NCI-H460 lung): > 100 µM | TGI (TK-10 renal): > 100 µM | TGI (A549 NSCLC): > 100 µM

C=CCC[CH2][Sn]([c]1ccccc1)([c]1ccccc1)[c]1ccccc1
GI50 (LOX IMVI melanoma): 1.16 µM | TGI (LOX IMVI melanoma): 2.38 µM | GI50 (SNB-19 CNS): 1.73 µM | TGI (SNB-19 CNS): 3.31 µM | GI50 (MALME-3M melanoma): 1.56 µM | TGI (MALME-3M melanoma): 3.05 µM | GI50 (HCT-15 colon): 1.52 µM | TGI (HCT-15 colon): 3.07 µM | GI50 (HOP-18 NSCLC): 2.59 µM | TGI (HOP-18 NSCLC): 4.51 µM | GI50 (HCT-116 colon): 0.977 µM | TGI (HCT-116 colon): 2.15 µM | GI50 (UACC-62 melanoma): 1.11 µM | TGI (UACC-62 melanoma): 2.36 µM | GI50 (NCI-H460 lung): 1.61 µM | TGI (NCI-H460 lung): 3.06 µM | GI50 (TK-10 renal): 1.6 µM | TGI (TK-10 renal): 3.09 µM | GI50 (A549 NSCLC): 1.71 µM | TGI (A549 NSCLC): 3.54 µM

CC1=Nc2ccccc2S/C1=C(/C)NNC(=O)C(N)=O
TGI (LOX IMVI melanoma): > 100 µM | TGI (SNB-19 CNS): > 100 µM | TGI (MALME-3M melanoma): > 100 µM | TGI (HCT-15 colon): > 100 µM | TGI (HOP-18 NSCLC): > 100 µM | TGI (HCT-116 colon): > 100 µM | TGI (UACC-62 melanoma): > 100 µM | TGI (NCI-H460 lung): > 100 µM | TGI (TK-10 renal): > 100 µM | TGI (A549 NSCLC): > 100 µM

CC1=C(C)C(=O)c2c(cc3ccccn23)C1=O
TGI (LOX IMVI melanoma): 19.1 µM | TGI (SNB-19 CNS): 28.6 µM | TGI (MALME-3M melanoma): 17 µM | TGI (HCT-15 colon): 29.9 µM | TGI (HOP-18 NSCLC): 68.2 µM | TGI (UACC-62 melanoma): 35.4 µM | TGI (NCI-H460 lung): 31.5 µM | TGI (TK-10 renal): 55.9 µM | TGI (A549 NSCLC): 43.1 µM

CCCC(=O)OC1C(C(O)CO)OC2OC(C)(C)OC21 (stereo not drawn)
TGI (LOX IMVI melanoma): > 100 µM | TGI (SNB-19 CNS): > 100 µM | TGI (MALME-3M melanoma): > 100 µM | TGI (HCT-15 colon): > 100 µM | TGI (HOP-18 NSCLC): > 100 µM | TGI (HCT-116 colon): > 100 µM | TGI (UACC-62 melanoma): > 100 µM | TGI (NCI-H460 lung): > 100 µM | TGI (TK-10 renal): > 100 µM | TGI (A549 NSCLC): > 100 µM

O=C1[C@H]2ON(c3ccccc3)C(c3ccccc3Cl)[C@H]2C(=O)N1c1ccc(Cc2ccc(N3C(=O)[C@@H]4ON(c5ccccc5)C(c5ccccc5Cl)[C@@H]4C3=O)cc2)cc1 (stereo partly drawn)
TGI (LOX IMVI melanoma): > 100 µM | TGI (SNB-19 CNS): > 100 µM | TGI (MALME-3M melanoma): > 100 µM | TGI (HCT-15 colon): > 100 µM | TGI (HOP-18 NSCLC): > 100 µM | TGI (HCT-116 colon): > 100 µM | TGI (UACC-62 melanoma): > 100 µM | TGI (NCI-H460 lung): > 100 µM | TGI (TK-10 renal): > 100 µM | TGI (A549 NSCLC): > 100 µM

CCCCCCCCCCCC(=O)OCC1OC(n2cc(F)c(=O)[nH]c2=O)C(NC(=O)OCc2ccccc2)C(OC(=O)CCCCCCCCCCC)C1O (stereo not drawn)
TGI (LOX IMVI melanoma): > 100 µM | TGI (SNB-19 CNS): > 100 µM | TGI (MALME-3M melanoma): > 100 µM | TGI (HCT-15 colon): > 100 µM | TGI (HOP-18 NSCLC): > 100 µM | TGI (HCT-116 colon): > 100 µM | TGI (UACC-62 melanoma): > 100 µM | TGI (NCI-H460 lung): > 100 µM | TGI (TK-10 renal): > 100 µM | TGI (A549 NSCLC): > 100 µM

Cc1cc(N(CCC#N)CCC#N)ccc1N=Nc1cccc(C(=O)O)c1
TGI (LOX IMVI melanoma): > 100 µM | TGI (MALME-3M melanoma): > 100 µM | TGI (HCT-15 colon): > 100 µM | TGI (HOP-18 NSCLC): > 100 µM | TGI (UACC-62 melanoma): > 100 µM | TGI (TK-10 renal): > 100 µM | TGI (A549 NSCLC): > 100 µM

CSc1ccc(C2OC(=O)c3ccccc32)c2ccccc12 (stereo not drawn)
TGI (LOX IMVI melanoma): > 100 µM | TGI (SNB-19 CNS): > 100 µM | TGI (MALME-3M melanoma): > 100 µM | TGI (HCT-15 colon): > 100 µM | TGI (HOP-18 NSCLC): > 100 µM | TGI (HCT-116 colon): > 100 µM | TGI (UACC-62 melanoma): > 100 µM | TGI (NCI-H460 lung): > 100 µM | TGI (A549 NSCLC): > 100 µM

COc1ccc(OC)c(NC(=O)C2=C(C)NC(C)=C(C(=O)Nc3cc(OC)ccc3OC)C2c2ccccc2)c1
TGI (LOX IMVI melanoma): > 100 µM | TGI (SNB-19 CNS): > 100 µM | TGI (MALME-3M melanoma): > 100 µM | TGI (HCT-15 colon): > 100 µM | TGI (HOP-18 NSCLC): > 100 µM | TGI (HCT-116 colon): > 100 µM | TGI (UACC-62 melanoma): > 100 µM | TGI (NCI-H460 lung): > 100 µM | TGI (TK-10 renal): > 100 µM | TGI (A549 NSCLC): > 100 µM

COc1cc(C(=O)C/C(CCCC(=O)Nc2ccccc2[N+](=O)[O-])=N/NC(=O)c2cc3ccccc3cc2O)ccc1O
TGI (LOX IMVI melanoma): > 65.4 µM | TGI (SNB-19 CNS): > 100 µM | TGI (MALME-3M melanoma): > 100 µM | TGI (HCT-15 colon): > 74.3 µM | TGI (HOP-18 NSCLC): > 100 µM | TGI (HCT-116 colon): > 100 µM | TGI (UACC-62 melanoma): 53.2 µM | TGI (NCI-H460 lung): > 100 µM | TGI (TK-10 renal): > 100 µM | TGI (A549 NSCLC): > 100 µM

Cc1ccc(N=Cc2ccc3c(c2)OCO3)cc1C
TGI (LOX IMVI melanoma): > 100 µM | TGI (SNB-19 CNS): > 100 µM | TGI (MALME-3M melanoma): > 100 µM | TGI (HCT-15 colon): > 100 µM | TGI (HOP-18 NSCLC): > 100 µM | TGI (HCT-116 colon): > 100 µM | TGI (UACC-62 melanoma): > 100 µM | TGI (NCI-H460 lung): > 100 µM | TGI (TK-10 renal): > 100 µM | TGI (A549 NSCLC): > 100 µM
